From patent US10806798B2, “Compound with effects of thrombolysis, free radical scavenging and thrombus-targeting” (Shanghai Lumosa Therapeutics Co., Ltd., priority 2012, dated 2020)

Legend:
[1] = tested on: euglobulin clot; test: Euglobulin clot lysis; assay type: biochemical, Pig; details: 10 μL of 1 mM solution; after 4 h; n = 3
Method: Pig blood was taken and mixed with 3.8% sodium citrate in a volume ratio of 9:1, immediately centrifuged at 3000 r/min for 10 min, and platelet-poor plasma was separated. 2 mL platelet-poor pig plasma and 36 mL ultrapure water were added into a 50 mL centrifuge tube. In each tube, 0.4 mL acetic acid (1%) was added and thoroughly mixed, and the tube was placed in a 4° C. refrigerator for 10 min and then centrifuged at 3000 r/min for 10 min. The centrifuge tubes were inverted, and then the inner wall of the tubes was dried using a filter paper after the liquid was drained. The euglobuin pellets resulting from centrifugation was freeze-dried for about 40 min and scratched out. About 35 mg euglobuin was taken and dissolved in 7 ml borax buffer (pH 9.28). The euglobuin were mostly dissolved after 1 h, into which 0.7 mL CaCl2 solution (25 mM) was added, and immediately plated on a 10×10 cm glass plate with a thickness of about 1 mm. After clot formation, 10 μL normal saline, or 10 μL of a solution of one of compounds Ia to Il in normal saline (1 mM) or 10 μL of a urokinase solution in normal saline (0.8 mg/mL) was pipetted and spotted onto the clot plate, with an interval between every two drops more than 1.5 cm, and each sample was spotted 3 times.

[2] = tested on: thrombus; test: In vivo anti-thrombus experiment (arteriovenous cannula with thread); parameters: species or system SD rats; details: 0.1 μmol/kg by gavage; n = 11
Method: SD rats (male, 220 to 230 g) were randomly divided into groups with 11 rats in each group. The rats were fed at a resting state for 1 day and fasted overnight. […] After 30 min, the rats were anesthetized with a 20% urethane solution, and the right carotid artery and the left carotid vein were dissected. A cannula was filled with sodium heparin in normal saline, and one end thereof was inserted into the left vein, while the other end was injected with a certain amount of sodium heparin for anticoagulation with an injector and then inserted into the right artery. Blood flew from the right artery to the left vein through the polyethylene tubing, and the thread attached with thrombus was taken out after 15 min and the weight thereof was recorded. The wet thrombus weight was determined by subtracting the thread weight from the total weight.

[3] = tested on: rats with stroke; test: Cerebral infarction volume after immediate treatment of stroke (TTC staining); assay type: in vivo, SD rats; details: n = 10
Method: After the rats were awake for 24 h and assessed for their degree of damage in neural function in Experimental example 6, they were anesthesized with urethane followed by immediate decapitation and removal of the brain. Brain tissues were kept in a −20° C. refrigerator for 2 h, and coronal sections of about 2 mm were successively sliced from the prefrontal end for a total of 6 sections, and then placed into a 2% TTC solution to incubate in darkness at 37° C. for 30 min. The color change in brain sections was observed: normal brain tissues were stained red by TTC, while ischemic brain tissues, i.e., brain tissues with infracts, appeared in a white color. Photographs were taken by using a digital camera and processed with SPSS statistics software, and the volume of infarction in brain tissues and the volume of normal brain tissues in the coronal sections were calculated.

[4] = tested on: thrombus from rat arterial blood; test: In vitro thrombolysis; parameters: species or system SD rats; details: 100 nM, 2 h at 37° C., n = 6
Method: SD rats (male, 350 to 400 g) were anaesthetized by intraperitoneal injection of a urethane solution at a dosage of 1200 mg/kg. The anaesthetized rats were fixed in a supine position, and the right common carotid artery was dissected, clamped at the proximal end with an arterial clip, and penetrated with a suture at the proximal and distal ends, respectively. The suture at the distal end is clipped tightly by a hemostatic clamp at the fur. Cannulation was performed at the distal end, the artery clamp was removed, and the total arterial blood was discharged into a 50 ml container previously treated with silicone oil. […] rat arterial blood was injected into a vertically fixed glass tube (20 mm in length, with an inner diameter of 4 mm and an outer diameter of 5 mm, sealed with a rubber stopper at the bottom), into which was immediately inserted a thrombus immobilization screw made of stainless steel. […] 40 min after the blood was coagulated, the rubber stopper at the bottom of the glass tube was removed, the stem of the thrombus immobilization screw was nipped by forceps, and the thrombus-wrapped thrombus immobilization screw was carefully taken out from the glass tube. The screw was then suspended and dipped in triple-distilled water to remove excessive blood, and accurately weighed after 1 h. The thrombus was suspended in 8 mL of normal saline, or a solution of compounds Ia-Il in normal saline (at a concentration of 100 nM), or a solution of ARPAK (SEQ. ID NO. 4), GRPAK (SEQ. ID NO. 5), RPAK (SEQ. ID NO. 3) or PAK in normal saline (at a concentration of 100 nM), or a solution of urokinase in normal saline (100 IU/mL), then shaked at 37° C. in a thermostatic shaker (63 r/min), and removed after 2 h and accurately weighed to determine the weight of the thrombus.

[5] = tested on: thrombus; test: In vivo thrombolysis, rat arteriovenous bypass thrombolysis model; parameters: species or system SD rats; details: 0.1 μmol/kg, after 1 h, n = 10
Method: SD rats (male, 220 to 230 g) were anaesthetized by intraperitoneal injection of a urethane solution at a dosage of 1200 mg/kg. The anaesthetized rats were fixed in a supine position, and the right common carotid artery was dissected, clamped at the proximal end with an arterial clip, and penetrated with a suture at the proximal and distal ends, respectively. The suture at the distal end is clipped tightly by a hemostatic clamp at the fur. Cannulation was performed at the distal end, the arterial clamp was removed, and about 1 ml arterial blood was discharged into a 1 ml eppendorf. 0.1 ml rat arterial blood was injected into a vertically fixed glass tube (15 mm in length, with an inner diameter of 2.5 mm and an outer diameter of 5.0 mm, sealed with a rubber stopper at the bottom), into which was immediately inserted a thrombus immobilization screw made of stainless steel. […] 15 min after the blood was coagulated, the rubber stopper at the bottom of the glass tube was removed, the stem of the thrombus immobilization screw was nipped by forceps, and the thrombus-wrapped thrombus immobilization screw was carefully taken out of the glass tube and then accurately weighed.
A bypass cannula was composed of 3 segments. The middle segment was a polyethylene tubing having a length of 60.0 mm and an inner diameter of 3.5 mm. The segments on both ends were similar polyethylene tubes having a length of 100.0 mm, an inner diameter of 1.0 mm and an outer diameter of 2.0 mm, one end of which was pulled to form a tip, with an outer diameter of 1.0 mm, that could be inserted into the rat carotid artery or vein, and the other end of which was sheathed by a polyethylene tube having a length of 7.0 mm and an outer diameter of 3.5 mm (thickened in order to be inserted into the polyethylene tubing of the middle segment). The inner wall of the 3-segment cannula was entirely silylated (with 1% silicone oil in ethyl ether). The thrombus-wrapped thrombus immobilization screw was placed into the polyethylene tubing of the middle segment, and both ends of the tubing sheathed the thickened ends of the two polyethylene tubes. The cannula was filled with a heparin solution in normal saline (50 IU/kg) through the tip end by using an injector and was ready for use. The trachea of the anaesthetized rat was then dissected and tracheal cannulation was performed. The left external carotid vein of the rat was dissected, and penetrated with a suture at the proximal and distal ends, respectively. An uneven open incision was careful made on the exposed left external carotid vein, and the tip of the bypass cannula prepared as described above was inserted into the proximal end of the open incision in the left external carotid vein, away from the stem of the thrombus immobilization screw in the middle segment of the bypass cannula (which accommodated the accurately weighed thrombus immobilization screw). A precise amount of heparin in saline (50 IU/kg) was injected through the tip at the other end by using an injector. At this moment, without removing the injector from the ethylene tube, the tubing between the injector and the polyethylene tube was clamped with forceps. The blood flow was stopped by clamping the proximal end of the right common carotid artery with an arterial clip, and an uneven open incision was cut carefully across the common carotid artery near the clip. The injector was pulled out of the tip of the polyethylene tube, and the tip of the polyethylene tube was then inserted into the proximal end of the artery open incision. Both ends of the bypass cannula were fixed to the artery or vein with #4 sutures. […]

Substance	Diameter (Mean ± SD mm) of euglobulin clot lysis [1]	Wet weight of thrombus (Mean ± SD mg) [2]	Percentage of infarction volume (Mean ± SD %) [3]	Weight reduction in thrombus (Mean ± SD mg) [4]	Weight reduction in thrombus (Mean ± SD mg) [5]
1,3-dioxo-2-{4′-oxyacetyl-[N^ω-(Arg-Pro-Ala-Lys)-Lys-Arg-Gly-Asp-Val]phenyl}-4,4,5,5-tetramethylimidazoline [Ih]	4.2 mm	18.24 ± 1.89 mg	7.35 ± 1.14%	29.33 ± 3.01 mg	15.37 ± 1.82 mg
1,3-dioxo-2-{4′-oxyacetyl-[N^ω-(Arg-Pro-Ala-Lys)-Lys-Arg-Gly-Asp-Phe]phenyl}-4,4,5,5-tetramethylimidazoline [Ii]	4.0 mm	17.79 ± 2.02 mg	7.06 ± 1.08%	24.83 ± 1.17 mg	15.73 ± 2.95 mg
1,3-dioxo-2-{4′-oxyacetyl-[N^ω-(Gly-Arg-Pro-Ala-Lys)-Lys-Arg-Gly-Asp-Phe]phenyl}-4,4,5,5-tetramethylimidazoline [If]	4.5 mm	17.99 ± 2.47 mg	7.47 ± 1.31%	15.29 ± 3.36 mg	15.29 ± 3.36 mg
1,3-dioxo-2-{4′-oxyacetyl-[N^ω-(Ala-Arg-Pro-Ala-Lys)-Lys-Arg-Gly-Asp-Phe]phenyl}-4,4,5,5-tetramethylimidazoline [Ic]	3.8 mm	20.50 ± 2.26 mg	7.40 ± 1.65%	27.33 ± 2.07 mg	15.79 ± 3.07 mg
